Results reported in patent US20240190849A1, “AMINOPYRIMIDINE COMPOUNDS AND METHODS OF THEIR USE” (TYRA BIOSCIENCES, INC., priority 2021, published 2024).

Columns and labels:
FGFR1 = molecular target: T1, FGFR1 (Homo sapiens, UniProt P11362); experiment: Kinase binding assay (kinase-tagged T7 phage, affinity beads, qPCR readout), FGFR1; details: FGFR binding data
T1 construct: made in house; host or cells: E. coli derived from BL21, infected with T7 phage
Method in brief: (§1)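 Competition binding: T7 phage-tagged kinases incubated with immobilized biotinylated ligand beads and test compound (11-point 3-fold series, 0.9% DMSO final) for 1 h at room temperature. Bound kinase eluted and quantified by qPCR. Kd from Hill equation fit, slope fixed at −1.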

[1] = test system: UM-UC-14 (Bladder Cancer), FGFR3(S249C); experiment: Cancer cell viability assay (Cell Titer-Glo), UM-UC-14; assay type: cell-based; details: UMUC14, UM-UC-14 cells, 72 hours
Text: (§2) RT112/84, UM-UC-14, SNU-16 and KG-1 Cancer Cell Line Cell Viability Assays
(§3) To detect the change of intracellular ATP by Cell Titer-Glo@ and to evaluate the inhibitory effect of the compounds on cancer cell lines by determining the in vitro IC50 value of the compounds.
(§4) Cell Titer-Glo@ 2.0 Luminescent cell viability assay reagent was purchased from Promega (Madison, WI). RT112/84, SNU-16, and KG-1 cell lines were purchased from American Type Culture Collection (Manassas, VA). UM-UC-14 cell line was purchased from Sigma (St. Louis, MO). RT112/84, UM-UC-14, SNU-16, and KG-1 cells were cultured in RPMI1640 media supplemented with 10% fetal bovine serum. Cultures were maintained at 37° C. in a humidified atmosphere of 5% CO2 and 95% air.
(§5) Cell Viability Assay Procedure: Cells were plated in 96-well clear bottom/white plates (Corning #3903) at 10,000 cells/well in 100 μl of media, incubated overnight. The next day, test compound DMSO stock solutions were made at 10 mM and 2 μM final concentration. Compounds were then added to cells in a 9-dose, […] dilution series starting at 30 μM with an HP 300e Digital Dispenser (each dose was applied in triplicate). DMSO was backfilled to each well up to 301 nL total volume of test compound+DMSO, and a total of 301 nL DMSO was added to a control/no test compound well in triplicate. The cells in cell culture plates were incubated with the compounds at 37° C. and 5% CO2 for 72 hours. Then 50 μl of Cell Titer Glo 2.0 reagent was added to each well of the cell culture plates. The contents were covered from light and mixed on an orbital shaker at room temperature for 10 min. Luminescence was recorded by a Synergy H1 Microplate Reader (Biotek, Winooski, VT). Cells were assessed as a percentage of DMSO only treated control cells. Curves were plotted and IC50 values were calculated using the GraphPad Prism 8 program based on a sigmoidal dose-response equation (4 parameter).

FGFR2 = molecular target: T2, FGFR2 (Homo sapiens, UniProt P21802); experiment: Kinase binding assay (kinase-tagged T7 phage, affinity beads, qPCR readout), FGFR2; details: FGFR binding data
T2 construct: made in house; host or cells: E. coli derived from BL21, infected with T7 phage
Method in brief: as §1

[2] = test system: KG-1 (Acute Myeloid Leukemia), FGFR1OP2-FGFR1 fusion; experiment: Cancer cell viability assay (Cell Titer-Glo), KG-1; assay type: cell-based; details: Homo sapiens, KG-1 cells, 72 hours
Text: as §2, §3, §4, §5

[3] = test system: RT112/84 (Bladder Cancer), FGFR3-TACC3 fusion; experiment: Cancer cell viability assay (Cell Titer-Glo), RT112/84; assay type: cell-based; details: Homo sapiens, RT112/84 cells, 72 hours
Text: as §2, §3, §4, §5

FGFR3 = molecular target: T3, FGFR3 (Homo sapiens, UniProt P22607); experiment: Kinase binding assay (kinase-tagged T7 phage, affinity beads, qPCR readout), FGFR3; details: FGFR binding data
T3 construct: made in house; host or cells: E. coli derived from BL21, infected with T7 phage
Method in brief: as §1

FGFR3 (V555M) = molecular target: T4, FGFR3 (V555M) (Homo sapiens, UniProt P22607, V555M); experiment: Kinase binding assay (kinase-tagged T7 phage, affinity beads, qPCR readout), FGFR3 (V555M); details: FGFR binding data
T4 construct: made in house; host or cells: E. coli derived from BL21, infected with T7 phage
Method in brief: as §1

[4] = test system: SNU-16 (Gastric Carcinoma), FGFR2 amplification; experiment: Cancer cell viability assay (Cell Titer-Glo), SNU-16; assay type: cell-based; details: Homo sapiens, SNU-16 cells, 72 hours, read-out: SNU16 FGFR2 (IC50 nM)
Method in brief: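 Cells seeded at 10,000/well in RPMI1640 with 10% FBS, then exposed 72 h at 37° C. to a 9-point 10-fold dilution series from 30 μM, in triplicate. Viability read as ATP luminescence (CellTiter-Glo 2.0) as percent of DMSO control; IC50 from 4-parameter sigmoidal fit.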

T4 sequence (P22607 23-806 V555M): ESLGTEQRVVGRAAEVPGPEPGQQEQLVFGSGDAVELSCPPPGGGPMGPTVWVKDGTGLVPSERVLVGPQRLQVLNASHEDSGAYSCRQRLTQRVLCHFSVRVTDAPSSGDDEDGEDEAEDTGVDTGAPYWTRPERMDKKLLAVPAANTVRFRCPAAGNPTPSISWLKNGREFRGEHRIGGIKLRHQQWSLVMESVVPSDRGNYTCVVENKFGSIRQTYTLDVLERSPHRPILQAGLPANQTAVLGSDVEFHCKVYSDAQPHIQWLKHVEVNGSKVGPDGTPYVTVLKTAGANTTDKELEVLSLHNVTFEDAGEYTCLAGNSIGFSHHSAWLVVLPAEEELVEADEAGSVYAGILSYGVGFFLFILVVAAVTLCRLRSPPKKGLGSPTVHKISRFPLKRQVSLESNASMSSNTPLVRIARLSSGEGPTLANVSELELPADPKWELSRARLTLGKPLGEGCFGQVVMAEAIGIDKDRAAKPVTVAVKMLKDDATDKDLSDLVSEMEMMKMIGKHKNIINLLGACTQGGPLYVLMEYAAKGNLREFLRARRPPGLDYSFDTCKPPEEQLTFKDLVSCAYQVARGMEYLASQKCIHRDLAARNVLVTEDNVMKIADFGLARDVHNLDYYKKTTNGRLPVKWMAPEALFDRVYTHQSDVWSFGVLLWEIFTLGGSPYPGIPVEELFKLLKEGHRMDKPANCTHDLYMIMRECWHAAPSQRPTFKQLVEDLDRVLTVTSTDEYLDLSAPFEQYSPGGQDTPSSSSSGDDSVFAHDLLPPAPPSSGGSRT
T1 sequence (P11362 22-822): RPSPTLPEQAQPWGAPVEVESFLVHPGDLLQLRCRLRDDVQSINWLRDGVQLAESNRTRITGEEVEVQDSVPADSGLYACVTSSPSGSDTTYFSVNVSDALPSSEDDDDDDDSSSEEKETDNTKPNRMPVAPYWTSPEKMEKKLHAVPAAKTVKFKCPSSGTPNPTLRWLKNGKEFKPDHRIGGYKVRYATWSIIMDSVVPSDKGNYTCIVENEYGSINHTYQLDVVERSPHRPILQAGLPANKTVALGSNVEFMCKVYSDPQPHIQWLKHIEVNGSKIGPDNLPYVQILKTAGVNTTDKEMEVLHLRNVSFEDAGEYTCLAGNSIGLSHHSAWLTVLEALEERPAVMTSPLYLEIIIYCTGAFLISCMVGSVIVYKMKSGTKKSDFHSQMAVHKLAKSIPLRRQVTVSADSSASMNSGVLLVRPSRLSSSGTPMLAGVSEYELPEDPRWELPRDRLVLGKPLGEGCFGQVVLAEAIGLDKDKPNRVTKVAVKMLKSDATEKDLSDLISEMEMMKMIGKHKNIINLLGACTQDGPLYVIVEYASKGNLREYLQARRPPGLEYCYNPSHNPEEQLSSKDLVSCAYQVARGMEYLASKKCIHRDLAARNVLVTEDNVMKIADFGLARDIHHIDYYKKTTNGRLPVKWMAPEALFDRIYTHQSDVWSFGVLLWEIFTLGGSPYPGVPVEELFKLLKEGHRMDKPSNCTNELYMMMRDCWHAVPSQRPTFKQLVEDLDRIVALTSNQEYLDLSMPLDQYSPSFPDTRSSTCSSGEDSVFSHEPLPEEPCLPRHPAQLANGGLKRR
T3 sequence (P22607 23-806): as the sequence (P22607 23-806 V555M) above, with M533V counted along it
T2 sequence (P21802 22-821): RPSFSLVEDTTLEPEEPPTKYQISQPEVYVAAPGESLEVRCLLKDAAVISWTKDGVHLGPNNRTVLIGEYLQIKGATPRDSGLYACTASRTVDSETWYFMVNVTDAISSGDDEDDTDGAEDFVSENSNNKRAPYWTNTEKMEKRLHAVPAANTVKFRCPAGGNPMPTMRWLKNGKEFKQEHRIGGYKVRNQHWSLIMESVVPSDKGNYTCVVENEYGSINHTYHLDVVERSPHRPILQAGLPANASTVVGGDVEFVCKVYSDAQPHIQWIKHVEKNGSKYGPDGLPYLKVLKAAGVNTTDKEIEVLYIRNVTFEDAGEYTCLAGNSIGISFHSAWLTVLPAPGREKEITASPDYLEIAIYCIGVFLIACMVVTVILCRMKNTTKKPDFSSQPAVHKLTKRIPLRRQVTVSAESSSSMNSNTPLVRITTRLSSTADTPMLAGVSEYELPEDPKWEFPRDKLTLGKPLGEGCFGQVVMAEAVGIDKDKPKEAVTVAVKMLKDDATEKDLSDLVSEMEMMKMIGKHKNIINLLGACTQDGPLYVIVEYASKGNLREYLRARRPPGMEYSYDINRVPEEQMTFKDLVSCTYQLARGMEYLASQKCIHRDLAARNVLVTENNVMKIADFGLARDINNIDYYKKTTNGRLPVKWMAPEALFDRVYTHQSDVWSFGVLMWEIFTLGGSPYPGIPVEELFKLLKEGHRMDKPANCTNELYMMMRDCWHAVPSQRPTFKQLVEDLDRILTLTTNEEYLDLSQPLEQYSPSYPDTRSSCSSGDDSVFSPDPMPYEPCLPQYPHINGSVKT

| Compound | Kd (FGFR1) [nM] | IC50 [1] [nM] | Kd (FGFR2) [nM] | IC50 [2] [nM] | IC50 [3] [nM] | Kd (FGFR3) [nM] | Kd (FGFR3 (V555M)) [nM] | IC50 [4] [nM] |
| --- | --- | --- | --- | --- | --- | --- | --- | --- |
| C=CC(=O)Nc1ccc2c(ccn2-c2nc(Nc3cnn(C)c3)ncc2Cl)c1 [Example 2, N-[1-[5-chloro-2-[(1-methylpyrazol-4-yl)amino]pyrimidin-4-yl]indol-5-yl]prop-2-enamide] | 0.1 to 100 | 0.1 to 100 | 0.1 to 100 | 0.1 to 100 | 0.1 to 100 | 0.1 to 100 | 0.1 to 100 |  |
| C=CC(=O)Nc1ccc2c(ccn2-c2nc(Nc3cccc(OCCN4CCOCC4)c3)ncc2Cl)c1C [Example 7, N-[1-[5-chloro-2-[3-(2-morpholinoethoxy)anilino]pyrimidin-4-yl]-4-methyl-indol-5-yl]prop-2-enamide] | 0.1 to 100 | > 1000 | 100 to 250 | 250 to 1000 | > 1000 | 100 to 250 | 0.1 to 100 |  |
| C=CC(=O)Nc1ccc2c(c1)c(C)cn2-c1nc(Nc2cnn(C)c2)ncc1C [Example 8, N-[3-Methyl-1-[5-methyl-2-[(1-methylpyrazol-4-yl)amino]pyrimidin-4-yl]indol-5-yl]prop-2-enamide] | 0.1 to 100 | 0.1 to 100 | 0.1 to 100 | 0.1 to 100 | 0.1 to 100 | 0.1 to 100 | 0.1 to 100 |  |
| C=CC(=O)Nc1ccc2c(c1)c(C)cn2-c1nc(Nc2cccc(OCCN3CCOCC3)c2)ncc1C [Example 9, N-[3-methyl-1-[5-methyl-2-[3-(2-morpholinoethoxy)anilino]pyrimidin-4-yl]indol-5-yl]prop-2-enamide] | 0.1 to 100 | 0.1 to 100 | 0.1 to 100 | 0.1 to 100 | 0.1 to 100 | 0.1 to 100 | 0.1 to 100 |  |
| C=CC(=O)Nc1ccc2c(ccn2-c2nc(Nc3ccc(OCCN4CCOCC4)cc3)ncc2Cl)c1 [Example 10, N-[1-[5-chloro-2-[4-(2-morpholinoethoxy)anilino]pyrimidin-4-yl]indol-5-yl]prop-2-enamide] | 100 to 250 | 0.1 to 100 | 100 to 250 | 0.1 to 100 | 0.1 to 100 | 0.1 to 100 | 0.1 to 100 |  |
| C=CC(=O)Nc1ccc2c(c1)c(C)cn2-c1nc(Nc2ccc(OCCN3CCOCC3)cc2)ncc1C [Example 19, N-[3-methyl-1-[5-methyl-2-[4-(2-morpholinoethoxy)anilino]pyrimidin-4-yl]indol-5-yl]prop-2-enamide] | 0.1 to 100 | 0.1 to 100 | 0.1 to 100 | 0.1 to 100 | 0.1 to 100 | 0.1 to 100 | 0.1 to 100 |  |
| C=CC(=O)Nc1ccc2c(c1)c(C)cn2-c1nc(Nc2ccc(N3CCOCC3)c(F)c2)ncc1Cl [Example 22, N-[1-[5-chloro-2-(3-fluoro-4-morpholino-anilino)pyrimidin-4-yl]-3-methyl-indol-5-yl]prop-2-enamide] | 0.1 to 100 | 0.1 to 100 | 0.1 to 100 | 0.1 to 100 | 0.1 to 100 | 0.1 to 100 | 0.1 to 100 |  |
| C=CC(=O)Nc1ccc2c(c1)c(C)cn2-c1nc(Nc2ccc(OC)c(OC)c2)ncc1Cl [Example 23, N-[1-[5-chloro-2-(3,4-dimethoxyanilino)pyrimidin-4-yl]-3-methyl-indol-5-yl]prop-2-enamide] | 0.1 to 100 | 0.1 to 100 | 0.1 to 100 | 0.1 to 100 | 0.1 to 100 | 0.1 to 100 | 0.1 to 100 |  |
| C=CC(=O)Nc1ccc2c(c1)c(C)cn2-c1nc(Nc2ccc(N3CCOCC3)cc2)ncc1Cl [Example 24, N-[3-methyl-1-[5-chloro-2-(4-morpholinoanilino)pyrimidin-4-yl]indol-5-yl]prop-2-enamide] | 0.1 to 100 | 0.1 to 100 | 0.1 to 100 | 0.1 to 100 | 0.1 to 100 | 0.1 to 100 | 0.1 to 100 |  |
| C=CC(=O)Nc1ccc2c(c1)c(C)cn2-c1nc(Nc2cnn(C)c2)ncc1Cl [Example 25, N-[1-[5-chloro-2-[(1-methylpyrazol-4-yl)amino]pyrimidin-4-yl]-3-methyl-indol-5-yl]prop-2-enamide] | 0.1 to 100 | 0.1 to 100 | 0.1 to 100 | 0.1 to 100 | 0.1 to 100 | 0.1 to 100 | 0.1 to 100 |  |
| C=CC(=O)Nc1ccc2c(-c3ccnc(Nc4ccc(N5CCOCC5)cc4)n3)cn(C)c2c1 [Example 53, N-[1-Methyl-3-[2-(4-morpholino-anilino)pyrimidin-4-yl]indol-6-yl]prop-2-enamide] | 0.1 to 100 | 0.1 to 100 | 0.1 to 100 | 0.1 to 100 |  | 0.1 to 100 | 0.1 to 100 | 0.1 to 100 |
| C=CC(=O)Nc1ccc2c(c1)c(CC)cn2-c1nc(Nc2cnn(C)c2)ncc1C [Example 136, N-[3-ethyl-1-[5-methyl-2-[(1-methylpyrazol-4-yl)amino]pyrimidin-4-yl]indol-5-yl]prop-2-enamide] | 0.1 to 100 | 0.1 to 100 | 0.1 to 100 |  | 0.1 to 100 | 0.1 to 100 | 0.1 to 100 | 0.1 to 100 |
| C=CC(=O)Nc1ccc2c(c1)c(C)cn2-c1nc(Nc2cnn(C)c2C)ncc1F [Example 146, N-[1-[2-[(1,5-dimethylpyrazol-4-yl)amino]-5-fluoro-pyrimidin-4-yl]-3-methyl-indol-5-yl]prop-2-enamide] | 0.1 to 100 | 0.1 to 100 | 0.1 to 100 | 0.1 to 100 |  | 0.1 to 100 | 0.1 to 100 | 0.1 to 100 |
| C=CC(=O)Nc1ccc2c(c1)c(C)cn2-c1nc(Nc2cnn(CCCO)c2)ncc1F [Example 160, N-[1-[5-fluoro-2-[[1-(3-hydroxypropyl)pyrazol-4-yl]amino]pyrimidin-4-yl]-3-methyl-indol-5-yl]prop-2-enamide] | 0.1 to 100 | 0.1 to 100 | 0.1 to 100 |  | 0.1 to 100 | 0.1 to 100 | 0.1 to 100 | 0.1 to 100 |
| C=CC(=O)Nc1ccc2c(c1)c(C)cn2-c1nc(Nc2cnn(CCOC)c2)ncc1F [Example 163, N-[1-[5-fluoro-2-[[1-(2-methoxyethyl)pyrazol-4-yl]amino]pyrimidin-4-yl]-3-methyl-indol-5-yl]prop-2-enamide] | 0.1 to 100 | 0.1 to 100 | 0.1 to 100 |  | 0.1 to 100 | 0.1 to 100 | 0.1 to 100 | 0.1 to 100 |
| C=CC(=O)Nc1ccc2c(c1)c(C)cn2-c1nc(Nc2cn(C)nc2C)ncc1F [Example 167, N-[1-[2-[(1,3-Dimethylpyrazol-4-yl)amino]-5-fluoro-pyrimidin-4-yl]-3-methyl-indol-5-yl]prop-2-enamide] | 0.1 to 100 | 0.1 to 100 | 0.1 to 100 |  | 0.1 to 100 | 0.1 to 100 | 0.1 to 100 | 0.1 to 100 |
| C=CC(=O)Nc1ccc2c(c1)c(C)cn2-c1nc(Nc2cnn(CC(C)(C)O)c2)ncc1F [Example 181, N-[1-[5-fluoro-2-[[1-(2-hydroxy-2-methyl-propyl)pyrazol-4-yl]amino]pyrimidin-4-yl]-3-methyl-indol-5-yl]prop-2-enamide] | 0.1 to 100 | 0.1 to 100 | 0.1 to 100 |  | 0.1 to 100 | 0.1 to 100 | 0.1 to 100 | 0.1 to 100 |
